# According to publication PMC12797250, “Structure–activity relationships can be directly extracted from high-throughput crystallographic evaluation of fragment elaborations in crude reaction mixtures” (Chemical Science, 2025):
# Assays:
# PHIP(2) [1] = molecular target: T1, PHIP(2) (Homo sapiens, UniProt Q8WWQ0); experiment: grating-coupled interferometry (waveRAPID), immobilised PHIP([…]); type: binding
# T1 construct: second bromodomain
# PHIP(2) [2] = molecular target: T1, PHIP(2); experiment: X-ray crystallography, crystal soak; type: binding; conditions: acetylated lysine site; soak 8 mM, 24 h, 4 °C, 20% ethylene glycol, pH about 5.6; flipped and translated pose
Kd (PHIP(2) [1]) [µM],Structure (SMILES),"X-ray crystallography, crystal soak (PHIP(2) [2])"
18,CNC(=O)N1CCN(C(=O)c2ccc(COc3ccccc3)o2)CC1 [LAT33],–
–,CC1=Nc2ccc(C(=O)N3CCN(C(=O)NC(C)(C)C)CC3)cc2C1(C)C [LAT39],"long extensions towards the solvent (7FV8, LAT25 and 7FUZ, LAT39)"
